Assay results from the NIST ThermoML archive (doi:10.1016/j.tca.2006.10.008).
“And” between values parts separate entries of the source, which are not always exact repeats. Equal values may be shown once. Numbers after ± are expanded uncertainties.

Conditions: for vapor or sublimation pressure: Transpiration method; for Triple point temperature: DTA

F[B-](F)(F)F.[Na+] [sodium tetrafluoroborate]
vapor or sublimation pressure
Conditions | Crystal 1 | Crystal 2
483 K | – | 0.0002215 ± 1.1e-05 kPa
493 K | – | 0.0003008 ± 1.5e-05 kPa
498 K | – | 0.0003479 ± 1.7e-05 kPa
503 K | – | 0.0003963 ± 2e-05 kPa
519 K | 0.0006401 ± 3.2e-05 kPa | 0.0006401 ± 3.2e-05 kPa
523 K | 0.0008727 ± 4.4e-05 kPa | –
533 K | 0.001184 ± 5.9e-05 kPa | –
544 K | 0.001662 ± 8.3e-05 kPa | –
545 K | 0.001475 ± 7.4e-05 kPa | –
554 K | 0.001848 ± 9.2e-05 kPa [middle of 5 runs] | –
566 K | 0.002561 ± 0.00013 kPa | –
575 K | 0.002638 ± 0.00013 kPa | –
576 K | 0.003027 ± 0.00015 kPa | –
580 K | 0.003513 ± 0.00018 kPa | –
586 K | 0.003838 ± 0.00019 kPa | –
602 K | 0.003513 ± 0.00018 kPa | –
612 K | 0.005891 ± 0.00029 kPa | –
622 K | 0.008782 ± 0.00044 kPa | –
663 K | 0.01582 ± 0.00079 kPa | –

Conditions | Triple point temperature [K]
Crystal 2 | 519 ± 1

F[B-](F)(F)F.[Rb+] [rubidium tetrafluoroborate]
Crystal 1
Conditions | vapor or sublimation pressure
550 K | 3.93e-05 ± 2.1e-06 kPa
555 K | 5.32e-05 ± 2.8e-06 kPa
566 K | 6.47e-05 ± 3.3e-06 kPa
576 K | 9.73e-05 ± 5e-06 kPa
581 K | 9.94e-05 ± 5.1e-06 kPa
592 K | 0.0001394 ± 7.1e-06 kPa
602 K | 0.0001641 ± 8.3e-06 kPa
613 K | 0.0002173 ± 1.1e-05 kPa
622 K | 0.0002867 ± 1.4e-05 kPa and 0.000287 ± 1.5e-05 kPa and 0.0002854 ± 1.4e-05 kPa
629 K | 0.0003005 ± 1.5e-05 kPa
641 K | 0.0004209 ± 2.1e-05 kPa
655 K | 0.0005109 ± 2.6e-05 kPa
676 K | 0.0007892 ± 4e-05 kPa
697 K | 0.001082 ± 5.4e-05 kPa

Conditions | Triple point temperature [K]
Crystal 2 | 527 ± 1

F[B-](F)(F)F.[Cs+] [cesium tetrafluoroborate]
Crystal 1
Conditions | vapor or sublimation pressure
586 K | 3.63e-05 ± 1.9e-06 kPa
592 K | 4.17e-05 ± 2.2e-06 kPa
602 K | 6.62e-05 ± 3.4e-06 kPa
608 K | 8.43e-05 ± 4.3e-06 kPa
611 K | 8.34e-05 ± 4.3e-06 kPa
623 K | 0.0001414 ± 7.2e-06 kPa
627 K | 0.0001287 ± 6.5e-06 kPa [middle of 4 runs]
634 K | 0.0001822 ± 9.2e-06 kPa
648 K | 0.0002611 ± 1.3e-05 kPa
654 K | 0.0003472 ± 1.7e-05 kPa
666 K | 0.0003572 ± 1.8e-05 kPa
682 K | 0.0005593 ± 2.8e-05 kPa
692 K | 0.0007727 ± 3.9e-05 kPa
703 K | 0.0008954 ± 4.5e-05 kPa
705 K | 0.000949 ± 4.8e-05 kPa

Conditions | Triple point temperature [K]
Crystal 2 | 442 ± 1
